Reference: PMC7567097, “A nanoluciferase SARS-CoV-2 for rapid neutralization testing and screening of anti-infective drugs for COVID-19” (Nature Communications, 2020)
Where two headings read alike, the source gives them in different places.

Columns and labels:
[1] = tested on: SARS-CoV-2-Nluc; assay: microbe, parasite or virus in culture; format: cell-based
[2] = in vitro; conditions: human
[3] = Severe acute respiratory syndrome coronavirus 2, 48 h
[4] = Severe acute respiratory syndrome coronavirus 2, read-out: EC50 (µM) Replicate 1
[5] = Severe acute respiratory syndrome coronavirus 2, read-out: EC50 (µM) Replicate 2
[6] = read-out: EC50 (µM) Replicate 1
[7] = read-out: EC50 (µM) Replicate 2

## Nc1ccn([C@@H]2O[C@@](CO)(CCl)[C@@H](O)[C@H]2F)c(=O)n1 [ALS-8112]
[1]; [3]
  EC50: > 10 µM
[1]; [4]
  EC50: > 10 µM
[1]; [5]
  EC50: > 10 µM
[2]; CC50
  CC50: > 50 µM
[2]; CC50 (µM) Replicate 1
  CC50: > 50 µM
[2]; CC50 (µM) Replicate 2
  CC50: > 50 µM

## COC(=O)N[C@H](C(=O)N[C@@H](Cc1ccccc1)[C@@H](O)CN(Cc1ccc(-c2ccccn2)cc1)NC(=O)[C@@H](NC(=O)OC)C(C)(C)C)C(C)(C)C [Atazanavir]
[1]; [3]
  EC50: > 10 µM
[1]; [4]
  EC50: > 10 µM
[1]; [5]
  EC50: > 10 µM
[2]; CC50
  CC50: > 50 µM
[2]; CC50 (µM) Replicate 1
  CC50: > 50 µM
[2]; CC50 (µM) Replicate 2
  CC50: > 50 µM

## O=C1c2c(O)c(=O)ccn2N([C@@H]2c3ccccc3SCc3c2ccc(F)c3F)[C@@H]2COCCN12 [Baloxavir]
[1]; [3]
  EC50: > 10 µM
[1]; [4]
  EC50: > 10 µM
[1]; [5]
  EC50: > 10 µM
[2]; CC50
  CC50: 47 ± 1.3 µM
[2]; CC50 (µM) Replicate 1
  CC50: 46 µM
[2]; CC50 (µM) Replicate 2
  CC50: 47.9 µM

## Nc1ccn(C[C@@H](CO)OCP(=O)(O)O)c(=O)n1 [Cidofovir]
[1]; [3]
  EC50: > 10 µM
[1]; [4]
  EC50: > 10 µM
[1]; [5]
  EC50: > 10 µM
[2]; CC50
  CC50: > 50 µM
[2]; CC50 (µM) Replicate 1
  CC50: > 50 µM
[2]; CC50 (µM) Replicate 2
  CC50: > 50 µM

## CC(C)c1nc(CN(C)C(=O)N[C@@H](CCN2CCOCC2)C(=O)N[C@H](CC[C@H](Cc2ccccc2)NC(=O)OCc2cncs2)Cc2ccccc2)cs1 [Cobicistat]
[1]
  EC50: 2.74 ± 0.2 µM
  Selectivity index (SI) = CC50/EC50: 17.3
[1]; [3]
  EC50: 2.7 µM
[1]; [4]
  EC50: 2.6 µM
[1]; [5]
  EC50: 2.88 µM
[2]; CC50
  CC50: 47.3 ± 2.5 µM
[2]; CC50 (µM) Replicate 1
  CC50: 45.6 µM
[2]; CC50 (µM) Replicate 2
  CC50: 49.1 µM

## CC(C)CN(C[C@@H](O)[C@H](Cc1ccccc1)NC(=O)O[C@H]1CO[C@H]2OCC[C@H]21)S(=O)(=O)c1ccc(N)cc1 [Darunavir]
[1]; [3]
  EC50: > 10 µM
[1]; [4]
  EC50: > 10 µM
[1]; [5]
  EC50: > 10 µM
[2]; CC50
  CC50: > 50 µM
[2]; CC50 (µM) Replicate 1
  CC50: > 50 µM
[2]; CC50 (µM) Replicate 2
  CC50: > 50 µM

## C=C1[C@H](CO)[C@@H](O)C[C@@H]1n1cnc2c(=O)[nH]c(N)nc21 [Entecavir]
[1]; [3]
  EC50: > 10 µM
[1]; [4]
  EC50: > 10 µM
[1]; [5]
  EC50: > 10 µM
[2]; CC50
  CC50: > 50 µM
[2]; CC50 (µM) Replicate 1
  CC50: > 50 µM
[2]; CC50 (µM) Replicate 2
  CC50: > 50 µM

## NC(=O)c1nc(F)c[nH]c1=O [Favipiravir (T-705), Favipiravir]
[1]; [3]
  EC50: > 10 µM
[1]; [4]
  EC50: > 10 µM
[1]; [5]
  EC50: > 10 µM
[2]; CC50
  CC50: > 50 µM
[2]; CC50 (µM) Replicate 1
  CC50: > 50 µM
[2]; CC50 (µM) Replicate 2
  CC50: > 50 µM

## CC(C)OC(=O)[C@H](C)N[P@](=O)(OC[C@H]1O[C@@](C#N)(c2ccc3c(N)ncnn23)[C@](C)(O)[C@@H]1OC(=O)C(C)C)Oc1ccccc1 [GS-6620]
[1]; [3]
  EC50: > 10 µM
[1]; [4]
  EC50: > 10 µM
[1]; [5]
  EC50: > 10 µM
[2]; CC50
  CC50: > 50 µM
[2]; CC50 (µM) Replicate 1
  CC50: > 50 µM
[2]; CC50 (µM) Replicate 2
  CC50: > 50 µM

## COc1ccc2c(O[C@@H]3C[C@H]4C(=O)N[C@]5(P(=O)(O)Cc6c(F)cccc6F)C[C@H]5CCCCCCC[C@H](NC(=O)OC5CCCC5)C(=O)N4C3)cc(-c3csc(NC(C)C)n3)nc2c1Cl [GS-9256]
[1]; [3]
  EC50: > 10 µM
[1]; [4]
  EC50: > 10 µM
[1]; [5]
  EC50: > 10 µM
[2]; CC50
  CC50: 31.8 ± 10.9 µM
[2]; CC50 (µM) Replicate 1
  CC50: 39.5 µM
[2]; CC50 (µM) Replicate 2
  CC50: 24.1 µM

## CC[C@@H]1C[C@]1(NC(=O)[C@@H]1C[C@@H](Oc2cc(-c3csc(NC(C)C)n3)nc3c(Cl)c(OCCN4CCOCC4)ccc23)CN1C(=O)[C@@H](NC(=O)O[C@@H]1C[C@@H]2C[C@@H]2C1)C(C)(C)C)C(=O)O [GS-9451]
[1]; [3]
  EC50: > 10 µM
[1]; [4]
  EC50: > 10 µM
[1]; [5]
  EC50: > 10 µM
[2]; CC50
  CC50: > 50 µM
[2]; CC50 (µM) Replicate 1
  CC50: > 50 µM
[2]; CC50 (µM) Replicate 2
  CC50: > 50 µM

## N#C[C@@]1(c2ccc3c(N)ncnn23)O[C@H](CO)[C@@H](O)[C@H]1O [GS-441524]
[1]; [3]
  EC50: 0.869 ± 0.289 µM
[1]; [4]
  EC50: 1.07 µM
[1]; [5]
  EC50: 0.665 µM
[2]; CC50
  CC50: > 50 µM
[2]; CC50 (µM) Replicate 1
  CC50: > 50 µM
[2]; CC50 (µM) Replicate 2
  CC50: > 50 µM

## C=CC(=O)N1CCC[C@@H](n2nc(-c3ccc(Oc4ccccc4)cc3)c3c(N)ncnc32)C1 [Ibrutinib]
[1]; [3]
  EC50: > 10 µM
[2]; CC50
  CC50: > 50 µM

## CC(C)(C)NC(=O)[C@@H]1CN(Cc2cccnc2)CCN1C[C@@H](O)C[C@@H](Cc1ccccc1)C(=O)N[C@H]1c2ccccc2C[C@H]1O [Indinavir]
[1]; [3]
  EC50: > 10 µM
[1]; [4]
  EC50: > 10 µM
[1]; [5]
  EC50: > 10 µM
[2]; CC50
  CC50: > 50 µM
[2]; CC50 (µM) Replicate 1
  CC50: > 50 µM
[2]; CC50 (µM) Replicate 2
  CC50: > 50 µM

## COC(=O)N[C@H](C(=O)N1CC2(CC2)C[C@H]1c1ncc(-c2ccc3c(c2)C(F)(F)c2cc(-c4ccc5nc([C@@H]6[C@H]7CC[C@H](C7)N6C(=O)[C@@H](NC(=O)OC)C(C)C)[nH]c5c4)ccc2-3)[nH]1)C(C)C [Ledapisvir]
[1]; [3]
  EC50: > 10 µM
[1]; [4]
  EC50: > 10 µM
[1]; [5]
  EC50: > 10 µM
[2]; CC50
  CC50: > 50 µM
[2]; CC50 (µM) Replicate 1
  CC50: > 50 µM
[2]; CC50 (µM) Replicate 2
  CC50: > 50 µM

## O=C(Nc1ccc([N+](=O)[O-])cc1Cl)c1cc(Cl)ccc1O [Niclosamide]
[1]
  Selectivity index (SI) = CC50/EC50: 1.8
[1]; [3]
  EC50: 0.715 ± 0.332 µM
[1]; [4]
  EC50: 0.95 µM
[1]; [5]
  EC50: 0.48 µM
[2]; CC50
  CC50: 1.28 ± 0.23 µM
[2]; CC50 (µM) Replicate 1
  CC50: 1.44 µM
[2]; CC50 (µM) Replicate 2
  CC50: 1.12 µM

## CCC(CC)O[C@@H]1C=C(C(=O)O)C[C@H](N)[C@H]1NC(C)=O [Oseltamivir carboxylate]
[1]; [3]
  EC50: > 10 µM
[1]; [4]
  EC50: > 10 µM
[1]; [5]
  EC50: > 10 µM
[2]; CC50
  CC50: > 50 µM
[2]; CC50 (µM) Replicate 1
  CC50: > 50 µM
[2]; CC50 (µM) Replicate 2
  CC50: > 50 µM

## CCOc1nc(N)nc2c1ncn2[C@@H]1O[C@@H]2COP(=O)(OC(C)C)O[C@H]2[C@@]1(C)F (stereo partly drawn) [PSI-352938]
[1]; [3]
  EC50: > 10 µM
[1]; [4]
  EC50: > 10 µM
[1]; [5]
  EC50: > 10 µM
[2]; CC50
  CC50: > 50 µM
[2]; CC50 (µM) Replicate 1
  CC50: > 50 µM
[2]; CC50 (µM) Replicate 2
  CC50: > 50 µM

## Cc1cn2nc([C@@H]3CCCCN3C(=O)c3cc(Cl)ccc3NS(C)(=O)=O)cc2nc1N1CC[C@H](N)C1 [Presatovir]
[1]; [3]
  EC50: 2.53 ± 0.69 µM
[1]; [4]
  EC50: 3.01 µM
[1]; [5]
  EC50: 2.04 µM

## CC1=CC[C@H](C(=O)N(c2cc(C#CC(C)(C)C)sc2C(=O)O)[C@H]2CC[C@](O)(CO[C@H]3CCOC3)CC2)CC1 [Radalbuvir]
[1]; [3]
  EC50: > 10 µM
[1]; [4]
  EC50: > 10 µM
[1]; [5]
  EC50: > 10 µM
[2]; CC50
  CC50: > 50 µM
[2]; CC50 (µM) Replicate 1
  CC50: > 50 µM
[2]; CC50 (µM) Replicate 2
  CC50: > 50 µM

## NC(=O)c1ncn([C@@H]2O[C@H](CO)[C@@H](O)[C@H]2O)n1 [Ribavirin]
[1]; [3]
  EC50: > 10 µM
[1]; [4]
  EC50: > 10 µM
[1]; [5]
  EC50: > 10 µM
[2]; CC50
  CC50: > 50 µM
[2]; CC50 (µM) Replicate 1
  CC50: > 50 µM
[2]; CC50 (µM) Replicate 2
  CC50: > 50 µM

## CC(C)c1nc(CN(C)C(=O)N[C@H](C(=O)N[C@@H](Cc2ccccc2)C[C@H](O)[C@H](Cc2ccccc2)NC(=O)OCc2cncs2)C(C)C)cs1 [Ritonavir]
[1]; [3]
  EC50: > 10 µM
[1]; [4]
  EC50: > 10 µM
[1]; [5]
  EC50: > 10 µM

## CCOC(=O)[C@H](C)N[P@](=O)(CO[C@@H]1C=C(F)[C@H](n2cnc3c(N)ncnc32)O1)Oc1ccccc1 [Rovafovir (GS-9131), Rovafovir]
[1]; read-out: EC50
  EC50: > 10 µM
[1]; [6]
  EC50: > 10 µM
[1]; [7]
  EC50: > 10 µM

## CCOC(=O)/C=C/[C@H](C[C@@H]1CCNC1=O)NC(=O)[C@@H](CC(=O)[C@@H](NC(=O)c1cc(C)on1)C(C)C)Cc1ccc(F)cc1 [Rupintrivir]
[1]
  Selectivity index (SI) = CC50/EC50: >26.7
[1]; [3]
  EC50: 1.87 ± 0.47 µM
[1]; [4]
  EC50: 1.53 µM
[1]; [5]
  EC50: 2.2 µM
[2]; CC50
  CC50: > 50 µM
[2]; CC50 (µM) Replicate 1
  CC50: > 50 µM
[2]; CC50 (µM) Replicate 2
  CC50: > 50 µM

## CC(C)OC(=O)[C@H](C)N[P@](=O)(OC[C@H]1O[C@@H](n2ccc(=O)[nH]c2=O)[C@](C)(F)[C@@H]1O)Oc1ccccc1 [Sofosbuvir]
[1]; [3]
  EC50: > 10 µM
[1]; [4]
  EC50: > 10 µM
[1]; [5]
  EC50: > 10 µM
[2]; CC50
  CC50: > 50 µM
[2]; CC50 (µM) Replicate 1
  CC50: > 50 µM
[2]; CC50 (µM) Replicate 2
  CC50: > 50 µM

## Voxilaprevir
[1]; read-out: EC50
  EC50: > 10 µM
[1]; [6]
  EC50: > 10 µM
[1]; [7]
  EC50: > 10 µM
